Experimental data reported in PubChem BioAssay AID256 (DTP/NCI, 2004).
Values joined by “and” are separate entries in the source; they are usually repeats but may differ in a detail not shown here. Equal values may be shown once. Toxic doses and inconclusive results are not listed.

Tested on: CD2F1 mice, L1210 leukemia ip, survival T/C
Assay: NCI In Vivo Anticancer Drug Screen. Data for tumor model L1210 Leukemia (intraperitoneal) in CD2F1 (CDF1) mice
Details: higher = longer survival
Procedure, shortened: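 Antitumor effect is scored in animals hosting a serially transplanted tumor. Values compare compound-dosed animals against vehicle-only controls as a simple quotient.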

[1] = endpoint: mean survival time, dose: 100.0 mg/kg/injection, schedule: Q04DX003 (ip), vehicle: saline with Tween-80
[2] = endpoint: mean survival time, dose: 200.0 mg/kg/injection, schedule: Q04DX003 (ip), vehicle: saline with Tween-80
[3] = endpoint: mean survival time, dose: 400.0 mg/kg/injection, schedule: Q04DX003 (ip), vehicle: saline with Tween-80

CC(C)(C)/C=N/Nc1ccc([N+](=O)[O-])cc1[N+](=O)[O-]
T/C (endpoint: mean survival time, dose: 100.0 mg/kg/injection, schedule: Q04DX003 (ip), vehicle: acetone): 97 % of control
T/C (endpoint: mean survival time, dose: 200.0 mg/kg/injection, schedule: Q04DX003 (ip), vehicle: acetone): 101 % of control
T/C (endpoint: mean survival time, dose: 400.0 mg/kg/injection, schedule: Q04DX003 (ip), vehicle: acetone): 97 % of control

COC12[C@@H]3N[C@@H]3CN1C1=C(C(=O)C(N3CCCC(O)C3)=C(C)C1=O)[C@@H]2COC(N)=O (stereo partly drawn)
T/C (endpoint: median survival time, dose: 3.0 mg/kg/injection, schedule: Q01DX001 (ip), vehicle: saline): 106 % of control
T/C (endpoint: median survival time, dose: 6.0 mg/kg/injection, schedule: Q01DX001 (ip), vehicle: saline): 111 % of control
T/C (endpoint: median survival time, dose: 12.0 mg/kg/injection, schedule: Q01DX001 (ip), vehicle: saline): 118 % of control and 98 % of control
T/C (endpoint: median survival time, dose: 24.0 mg/kg/injection, schedule: Q01DX001 (ip), vehicle: saline): 108 % of control
T/C (endpoint: median survival time, dose: 48.0 mg/kg/injection, schedule: Q01DX001 (ip), vehicle: saline): 112 % of control

O=S(=O)(O)c1ccc(O)c(S(=O)(=O)O)c1
T/C (endpoint: mean survival time, dose: 100.0 mg/kg/injection, schedule: Q01DX001 (ip), vehicle: saline): 97 % of control
T/C (endpoint: mean survival time, dose: 200.0 mg/kg/injection, schedule: Q01DX001 (ip), vehicle: saline): 101 % of control
T/C (endpoint: mean survival time, dose: 400.0 mg/kg/injection, schedule: Q01DX001 (ip), vehicle: saline): 97 % of control

CC(=O)OCC1OC(n2cnc3c(=S)nc(N)[nH]c32)CC1OC(C)=O (stereo not drawn)
T/C (endpoint: mean survival time, dose: 0.63 mg/kg/injection, schedule: Q01DX005 (ip), vehicle: saline with Tween-80): 101 % of control
T/C (endpoint: mean survival time, dose: 1.25 mg/kg/injection, schedule: Q01DX005 (ip), vehicle: saline with Tween-80): 117 % of control
T/C (endpoint: mean survival time, dose: 20.0 mg/kg/injection, schedule: Q01DX005 (ip), vehicle: saline with Tween-80): 156 % of control

CCC(C(N)=O)C1=CCCCC1 (stereo not drawn)
T/C [1]: 103 % of control
T/C [2]: 104 % of control
T/C [3]: 101 % of control

C1CCC(C2CCCC[N-]2)[N-]C1.CC(C)C([NH-])C(=O)O.[Cl][Pt] (stereo not drawn)
T/C (endpoint: median survival time, dose: 10.0 mg/kg/injection, schedule: Q04DX003 (ip), vehicle: saline): 101 % of control
T/C (endpoint: median survival time, dose: 20.0 mg/kg/injection, schedule: Q04DX003 (ip), vehicle: saline): 102 % of control
T/C (endpoint: median survival time, dose: 40.0 mg/kg/injection, schedule: Q04DX003 (ip), vehicle: saline): 100 % of control
T/C (endpoint: median survival time, dose: 80.0 mg/kg/injection, schedule: Q04DX003 (ip), vehicle: saline): 94 % of control and 96 % of control
T/C (endpoint: median survival time, dose: 160.0 mg/kg/injection, schedule: Q04DX003 (ip), vehicle: saline): 97 % of control

Cc1ccc(C2(C#N)CCCC2)cc1
T/C (endpoint: mean survival time, dose: 100.0 mg/kg/injection, schedule: Q01DX009 (ip), vehicle: saline sonified): 97 % of control
T/C [1]: 97 % of control
T/C (endpoint: mean survival time, dose: 200.0 mg/kg/injection, schedule: Q01DX009 (ip), vehicle: saline sonified): 97 % of control
T/C [2]: 97 % of control
T/C (endpoint: mean survival time, dose: 400.0 mg/kg/injection, schedule: Q01DX009 (ip), vehicle: saline sonified): 88 % of control
T/C [3]: 97 % of control
